Measurements from patent US20240360177A1, “PEPTIDES WITH ANTIMICROBIAL ACTIVITIES” (priority 2021, published 2024).
≈ marks a conversion by molar mass, not a printed value. Where two headings read alike, the source gives them in different places. Starred links: 1 amine or outer side, 2 acyl side, 3 side chain; linkers in the order of their positions; H or OH if unused. Non-standard residues stand in square brackets, D forms with d. Residues, ends and D or L forms follow the SMILES beside them. NH(CH2)9CO = O=C(CCCCCCCCCN[*:1])[*:2]; Aoc = NCCCCCCCC(=O)O; βAla = NCCC(=O)O

Columns and labels:
[1] = tested on: Coccidioides species; details: N = 3 strains; 48-72 hrs; >50% inhibition
[2] = tested on: C. dubliniensis; details: 24 h
[3] = Plasma pharmacokinetics after single IV or IP dose in mice; format: in vivo, CD-1 mice
Method: The in vitro enzymatic and serum stability of the peptides is manifested by the in vivo plasma pharmacokinetic (PK) profile. A single 5 mg/kg intravenous injection (via tail vein) and a single 7.5 mg/kg intraperitoneal dose of SEQ ID NO: 7 were administered to 2 groups of CD-1 mice (n=3 per group). […] Serial blood samples were collected from the saphenous vein into EDTA-K2 as anti-coagulant at time points up to 4 hrs or 8 hrs after the intravenous or intraperitoneal doses. Plasma was separated and analyzed by an LC-MS/MS method as follows. Due to the small blood volume collected from each mouse, the plasma was pooled from 3 mice before analysis. A 50 μL of plasma was protein precipitated with a 100 μL solution of 300 ng/mL TAT peptide ([…]; SEQ ID NO: 99) as the internal standard in 5% trichloroacetic acid. After centrifugation, an aliquot of the supernatant was injected onto an HPLC column (Waters ACQUITY UPLC HSS T3, 2.1*50 mm, 1.8 μm) eluted with a gradient of mobile phase containing 0.1% perfluoropentanoic acid (PFPA) in water and 0.1% PFPA in acetonitrile. The peptide and the internal standard were detected using a Triple Quad 6500+ mass spectrometer operated with electro-spray ionization in the positive-ion SRM mode. The calibration curve range was from 10 to 4000 ng/mL. The mean plasma concentration of SEQ ID NO: 7 after the single intravenous and intraperitoneal doses are depicted in FIG. 2.
C0 or Cmax is concentration at time of injection for IV dose, or maximal concentration after IP dose; tmax is the time when C0 or Cmax was observed; t1/2 is plasma half-life; AUC is area under the plasma concentration vs. time curve; F is absolute bioavailability.

[4] = Acute toxicity in CD-1 mice; details: both sexes, mouse, in vivo
Method: Acute toxicity and subacute toxicity of ACPs were tested in CD-1 mice. In the acute toxicity study, groups of CD-1 male or female mice were administered single intravenous or intraperitoneal escalating doses (n=2-3 per dose) of the peptides dissolved in normal saline for injection or in phosphate buffered saline. The intravenous dose was administered via tail vein with a slow push over 15-20 seconds. Doses were escalated based on tolerability.

[5] = tested on: C. auris; details: 24 h
[6] = tested on: C. gattii; details: 72 h
[7] = tested on: Lomentospora prolificans
[8] = tested on: C. glabrata; details: 24 h
[9] = tested on: C. neoformans; details: 72 h
[10] = tested on: Fusarium spp.; details: 48 h
[11] = tested on: Rhizopus arrhizus; details: 24 h
[12] = tested on: C. tropicalis; details: 24 h
[13] = Subacute toxicity in CD-1 mice; format: in vivo; details: daily IP for 7 days
Method: In the subacute toxicity study, groups of CD-1 male or female mice were administered seven consecutive daily intraperitoneal doses (n=3 per dose) of the peptides (SEQ ID NO: 7, SEQ ID NO: 29, SEQ ID NO: 53) dissolved in normal saline for injection. Each peptide was evaluated at 2 to 3 dose levels ranging from 2.5 to 7.5 mg/kg/day. Mice were weighed at least once daily and observed at least twice daily for any abnormal findings and determination of overall health. At 24 hrs after the last dose, mice were humanely euthanized, with blood collected through cardiac puncture into K2EDTA microtainers to assess hematological parameters. All three peptides were tolerated at the highest dose evaluated (7.5 mg/kg/day) for 7 days.

[14] = tested on: C. parapsilosis; details: 24 h
[15] = in vitro; details: human, human serum, full strength
[16] = target: T1, Endoproteinase Arg-C (Hathewaya histolytica, UniProt P09870); assay: Endoproteinase Arg-C digestion stability; format: in vitro ADME; details: 37° C.
T1 construct: purchased Sigma Aldrich 11370529001
T1 sequence (P09870 51-181): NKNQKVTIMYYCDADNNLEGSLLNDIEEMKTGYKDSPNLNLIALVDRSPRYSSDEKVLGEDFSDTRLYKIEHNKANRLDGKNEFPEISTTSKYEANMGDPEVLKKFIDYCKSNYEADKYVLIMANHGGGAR
T1 sequence (P09870 191-526): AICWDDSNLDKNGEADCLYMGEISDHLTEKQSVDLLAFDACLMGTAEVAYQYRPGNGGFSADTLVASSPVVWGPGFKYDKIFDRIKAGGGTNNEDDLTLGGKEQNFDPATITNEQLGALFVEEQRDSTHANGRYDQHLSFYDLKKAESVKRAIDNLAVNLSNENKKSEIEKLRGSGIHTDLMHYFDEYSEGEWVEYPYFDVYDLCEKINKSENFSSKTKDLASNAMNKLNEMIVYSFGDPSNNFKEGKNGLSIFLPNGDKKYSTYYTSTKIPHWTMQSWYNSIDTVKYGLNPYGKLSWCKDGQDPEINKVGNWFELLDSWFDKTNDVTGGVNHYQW

[17] = in vitro; details: human, EC50 cytotoxicity in HepG2, intracellular ATP assay
[18] = tested on: Scedosporium spp.; details: 72 h
[19] = tested on: Paecilomyces variotii; details: 48 h
[20] = tested on: C. albicans; details: 24 h
[21] = tested on: Candida spp.
[22] = tested on: C. krusei; details: 24 h
[23] = tested on: Staphylococcus aureus ATCC 29213; format: cell-based
[24] = tested on: Mycobacterium smegmatis ATCC 700084; format: cell-based; details: ATCC 700084, 48 h
[25] = tested on: Salmonella senftenberg CDC 127; format: cell-based
[26] = tested on: Pseudomonas aeruginosa ATCC 27853; format: cell-based
[27] = tested on: Trichophyton rubrum ATCC MYA-4438
[28] = tested on: Klebsiella pneumoniae ATCC 13883; format: cell-based
[29] = tested on: Escherichia coli ATCC 25922; format: cell-based
[30] = tested on: Microsporum gypseum ATCC 14683
[31] = tested on: Mycobacterium fortuitum ATCC 110; assay: Antibacterial broth microdilution MIC, Mycobacterium fortuitum; format: cell-based; details: 48 hrs
[32] = tested on: Epidermophyton floccosum ATCC 52066
[33] = tested on: Shigella sonnei MMX 10772; assay: Antibacterial broth microdilution MIC, Shigella sonnei; format: cell-based; details: CAMHB
[34] = CD-1, mouse, IP 7.5 mg/kg, plasma
[35] = CD-1, mouse, IV 5 mg/kg, plasma
[36] = single IP dose, read-out: Tolerated single intraperitoneal dose
[37] = single IV dose via tail vein, read-out: Tolerated single intravenous dose

Row | Compound | MIC Range Coccidioides species [1] [µg/mL] | MIC C. dubliniensis [2] [µg/mL] | MTD [4, 36] [mg/kg] | MTD [4, 37] [mg/kg] | MIC C. auris [5] [µg/mL] | MIC C. gattii [6] [µg/mL] | MIC Range Lomentospora prolificans [7] [µg/mL] | MIC C. glabrata [8] [µg/mL] | MIC C. neoformans [9] [µg/mL] | MIC Range Fusarium spp. [10] [µg/mL] | MIC Range Rhizopus arrhizus [11] [µg/mL] | MIC C. tropicalis [12] [µg/mL] | MIC C. parapsilosis [14] [µg/mL] | EC50 [17] [µg/mL] | MIC Range Scedosporium spp. [18] [µg/mL] | MIC Range Paecilomyces variotii [19] [µg/mL] | MIC C. albicans [20] [µg/mL] | MIC C. krusei [22] [µg/mL] | further results
1 | N=C(N)NCCC[C@@H](N)C(=O)N[C@@H](CCCNC(=N)N)C(=O)N[C@H](CCCNC(=N)N)C(=O)NCCC(=O)N[C@H](CCCNC(=N)N)C(=O)N[C@@H](CCCNC(=N)N)C(=O)N[C@H](CCCNC(=N)N)C(=O)NCCC(=O)N[C@H](CCCNC(=N)N)C(=O)N[C@@H](CCCNC(=N)N)C(=O)N[C@H](CCCNC(=N)N)C(=O)N[C@@H](CCCNC(=N)N)C(=O)NCCC(=O)N[C@H](CCCNC(=N)N)C(=O)N[C@@H](CCCNC(=N)N)C(=O)N[C@H](CCCNC(=N)N)C(=O)N[C@@H](CCCNC(=N)N)C(N)=O [SEQ ID NO: 7, rRr-(Apr)-rRr-(Apr)-rRrR-(Apr)-rRrR-NH2] (H-[dR]R[dR][βAla][dR]R[dR][βAla][dR]R[dR]R[βAla][dR]R[dR]R-NH2) | 0.25 to 0.5 | 0.25 (≈ 0.103 µM) | 10 to 15 | 5 to 7.5 | 1 (≈ 0.414 µM) | 0.25 (≈ 0.103 µM) | ≤0.12 | 0.5 (≈ 0.207 µM) | 0.25 (≈ 0.103 µM) | 0.12 to 0.5 | 1 to 8 | 0.25 (≈ 0.103 µM) | 0.12 (≈ 0.0497 µM) | > 300 | ≤0.12 | 0.25 (≈ 0.103 µM) | 0.5 (≈ 0.207 µM) | 0.5 (≈ 0.207 µM) | AUC [3, 34]: 4740 ng·h/mL; Cmax [3, 34]: 1750 ng/mL; Tmax [3, 34]: 1 h; half-life [3, 34]: 1.69 h; AUC [3, 35]: 4420 ng·h/mL; C0 [3, 35]: 4480 ng/mL; Tmax [3, 35]: 0 h; half-life [3, 35]: 1.43 h; bioavailability ([3]; CD-1, mouse, plasma, IP 7.5 mg/kg, read-out: F (absolute bioavailability)): 74.8%; Tolerability of the PK doses ([3]; single 5 mg/kg IV and single 7.5 mg/kg IP): well tolerated; Tolerated dose (highest dose evaluated) [13]: 7.5 mg/kg/day; Clinical or hematological adverse effects ([13]; up to 7.5 mg/kg/day): No significant clinical or hematological adverse effects were observed; remaining at 2 h, 5 μM [15]: ~100%; half-life at 427 μg/mL ([16]; Endoproteinase Arg-C (isolated enzyme), read-out: Degradation half-life with Endoproteinase Arg-C (converted)): ~6 h; remaining at 6 h, 427 μg/mL ([16]; Endoproteinase Arg-C, peptide 427 μg/mL, enzyme 3 μg/mL, 6 hrs, read-out: Percent peptide remaining after incubation with Endoproteinase Arg-C): 50.5%; MIC50 Candida species [21]: 0.5 µg/mL (≈ 0.207 µM); MIC90 Candida species [21]: 1 µg/mL (≈ 0.414 µM)
2 | N=C(N)NCCC[C@@H](N)C(=O)N[C@@H](CCCNC(=N)N)C(=O)N[C@H](CCCNC(=N)N)C(=O)NCCCCCCCCCC(=O)N[C@H](CCCNC(=N)N)C(=O)N[C@@H](CCCNC(=N)N)C(=O)N[C@H](CCCNC(=N)N)C(=O)NCCCCCCCC(=O)N[C@H](CCCNC(=N)N)C(=O)N[C@@H](CCCNC(=N)N)C(=O)N[C@H](CCCNC(=N)N)C(=O)N[C@@H](CCCNC(=N)N)C(=O)NCCCCCCCC(=O)N[C@H](CCCNC(=N)N)C(=O)N[C@@H](CCCNC(=N)N)C(=O)N[C@H](CCCNC(=N)N)C(=O)N[C@@H](CCCNC(=N)N)C(=O)O [SEQ ID NO: 32, rRr-(Ada)-rRr-(Aoa)-rRrR-(Aoa)-rRrR] (H-[dR]R[dR][NH(CH2)9CO][dR]R[dR][Aoc][dR]R[dR]R[Aoc][dR]R[dR]R-OH) | 0.25 to 0.5 | 1 (≈ 0.376 µM) | 10 to 15 | 5 to 7.5 | 4 (≈ 1.51 µM) | 0.25 (≈ 0.0941 µM) | 0.25 (≈ 0.0941 µM) | 0.5 (≈ 0.188 µM) | 0.25 (≈ 0.0941 µM) | 0.25 to 1 | 0.5 to 8 | 0.5 (≈ 0.188 µM) | 0.25 (≈ 0.0941 µM) | > 300 | ≤0.12 | 0.25 (≈ 0.0941 µM) | 1 (≈ 0.376 µM) | 0.5 (≈ 0.188 µM) | MIC Staphylococcus aureus [23]: 8 µg/mL (≈ 3.01 µM); MIC Mycobacterium smegmatis [24]: 0.5 µg/mL (≈ 0.188 µM); MIC Salmonella senftenberg [25]: 4 µg/mL (≈ 1.51 µM); MIC Pseudomonas aeruginosa [26]: 16 µg/mL (≈ 6.02 µM); MIC Trichophyton rubrum [27]: 8 µg/mL (≈ 3.01 µM); MIC Klebsiella pneumoniae [28]: 4 µg/mL (≈ 1.51 µM); MIC Escherichia coli [29]: 2 µg/mL (≈ 0.753 µM); MIC Microsporum gypseum [30]: >64 µg/mL; MIC Mycobacterium fortuitum [31]: 2 µg/mL (≈ 0.753 µM); MIC Epidermophyton floccosum [32]: 4 µg/mL (≈ 1.51 µM); MIC Shigella sonnei [33]: 4 µg/mL (≈ 1.51 µM)
